# Test results as given in paper PMC9979163, “Discovery and functional characterization of N-(thiazol-2-yl)-benzamide analogs as the first class of selective antagonists of the Zinc-Activated Channel (ZAC)” (Biochemical pharmacology, 2021).
# Target: T1, hEAAT3 (Homo sapiens, UniProt P43005)
# T1 construct: expressed in transfected cells
# T1 sequence (P43005 1-524): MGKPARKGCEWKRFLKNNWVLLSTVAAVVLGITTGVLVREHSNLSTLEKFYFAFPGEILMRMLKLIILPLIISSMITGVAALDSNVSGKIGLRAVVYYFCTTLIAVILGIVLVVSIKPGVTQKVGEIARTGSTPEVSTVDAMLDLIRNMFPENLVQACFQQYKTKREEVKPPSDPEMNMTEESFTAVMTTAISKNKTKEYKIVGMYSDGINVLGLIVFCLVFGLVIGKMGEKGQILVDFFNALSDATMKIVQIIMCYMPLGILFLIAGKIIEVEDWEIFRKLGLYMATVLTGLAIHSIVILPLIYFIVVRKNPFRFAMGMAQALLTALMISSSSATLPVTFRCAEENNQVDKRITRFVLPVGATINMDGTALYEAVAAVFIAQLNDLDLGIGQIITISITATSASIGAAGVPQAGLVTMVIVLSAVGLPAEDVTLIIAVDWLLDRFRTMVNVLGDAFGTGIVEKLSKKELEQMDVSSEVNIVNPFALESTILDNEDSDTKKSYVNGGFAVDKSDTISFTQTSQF
# Test: FMP assay at hEAAT3-HEK293 cells (glutamate-induced response)
# Type: cell-based
# Settings: concentrations up to 100 μM, data not shown
compound,measurement,value
"COC(=O)c1sc(NC(=O)c2cc(Br)ccc2Cl)nc1C [compound 1, 2-(5-bromo-2-chlorobenzamido)-4-methylthiazole-5-methyl ester]",Effect on glutamate-induced response,did not affect
